Laboratory results reported in the SangsterLogP compilation.

With `CC(C)[C@H](C(=O)NO)N(Cc1cccnc1)S(=O)(=O)c1ccccc1F` the logP was 1.65. `CONC(=O)[C@@H](C(C)C)N(Cc1cccnc1)S(=O)(=O)c1cccc(Cl)c1` showed a logP of 2.38. In the case of `CC(C)[C@H](C(=O)NO)N(Cc1cccnc1)S(=O)(=O)c1cccc(Br)c1`, the logP is reported as 1.92. For `CONC(=O)C(C(C)C)N(Cc1cccnc1)S(=O)(=O)c1ccc(I)cc1` (configuration not stated), the logP was 3.11. `CONC(=O)[C@@H](C(C)C)N(Cc1cccnc1)S(=O)(=O)c1ccccc1F` gave a logP of 2.67. Work on `CONC(=O)[C@@H](C(C)C)N(Cc1cccnc1)S(=O)(=O)c1ccc(Cl)cc1` yielded a logP of 2.4. Compound `CC(C)[C@H](C(=O)NO)N(Cc1cccnc1)S(=O)(=O)c1ccccc1Cl` has a logP of 1.45. `CC(C)[C@H](C(=O)NO)N(Cc1cccnc1)S(=O)(=O)c1ccc(Cl)cc1` showed a logP of 1.81. For `CC(C)C(C(=O)NO)N(Cc1cccnc1)S(=O)(=O)c1ccc(Br)cc1` (configuration not stated), the logP was 1.91. `CC(C)[C@H](C(=O)NO)N(Cc1cccnc1)S(=O)(=O)c1ccc(I)cc1` showed a logP of 2.45. `CC(C)[C@H](C(=O)NO)N(Cc1cccnc1)S(=O)(=O)c1ccc(F)cc1` showed a logP of 1.4. For `CONC(=O)[C@@H](C(C)C)N(Cc1cccnc1)S(=O)(=O)c1ccc(F)cc1`, the logP was 2. For `CC(C)[C@H](C(=O)NO)N(Cc1cccnc1)S(=O)(=O)c1cccc(Cl)c1`, the logP was 1.82. For `CONC(=O)[C@@H](C(C)C)N(Cc1cccnc1)S(=O)(=O)c1ccccc1Cl`, the logP was 2.01. `CONC(=O)[C@@H](C(C)C)N(Cc1cccnc1)S(=O)(=O)c1ccccc1Br` showed a logP of 3.34. For `CC(C)C(C(=O)NO)N(Cc1cccnc1)S(=O)(=O)c1ccccc1Br` (configuration not stated), the logP was 1.54. `CONC(=O)[C@@H](C(C)C)N(Cc1cccnc1)S(=O)(=O)c1ccc(Br)cc1` gave a logP of 2.51.
